In patent US8063088B2 (Hoffmann-La Roche Inc., priority 2008, dated 2011):

Experiments:
human LXR alpha = biological target: T1, human LXR alpha (Homo sapiens, UniProt Q13133); assay: Radioligand binding assay (SPA), LXR alpha LBD; conditions: radioligand displacement, LXRα-LBD on SPA beads; read-out: LXRalpha Binding IC50
T1 construct: human LXR alpha (aa 164 to 447); unspecified tag ('tagged versions'); made in house; host or cells: E. coli BL21 (pLysS)
T1 sequence (Q13133 164-447): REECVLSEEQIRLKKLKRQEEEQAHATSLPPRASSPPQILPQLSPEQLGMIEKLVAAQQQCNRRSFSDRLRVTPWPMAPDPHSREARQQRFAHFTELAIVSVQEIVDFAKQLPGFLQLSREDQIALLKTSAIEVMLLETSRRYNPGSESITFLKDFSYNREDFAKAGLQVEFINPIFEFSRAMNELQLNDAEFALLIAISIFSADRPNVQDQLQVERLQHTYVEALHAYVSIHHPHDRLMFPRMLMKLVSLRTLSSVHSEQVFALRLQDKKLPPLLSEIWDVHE
Method: (§1) The following tests were carried out in order to determine the activity of the compounds of the present invention. Background information on the performed assays can be found in: Nichols J S et al. “Development of a scintillation proximity assay for peroxisome proliferator-activated receptor gamma ligand binding domain”, Anal Biochem. 1998, 257: 112-119.
(§2) Mammalian expression vectors were constructed to express full-length human LXR alpha and LXR beta. Bacterial expression vectors were constructed to produce tagged versions of the ligand binding domains (LBD) of human LXR alpha (aa 164 to 447) and human LXR beta (aa 155 to 460). To accomplish this, the portions of the sequences encoding the LBDs were amplified from the full-length clones by PCR and then subcloned into the plasmid vectors. Final clones were verified by DNA sequence analysis (Willy et al., Genes Dev. 1995, 9:1033-45; Song et al., Proc Natl Acad Sci USA. 1994, 91:10809-13).
(§3) Induction, expression, and purification of LBD proteins were performed in E. coli strain BL21 (pLysS) cells by standard methods (Ref: Current Protocols in Molecular Biology, Wiley Press, edited by Ausubel et al).
(§4) Radioligand Binding Assay
(§5) LXR alpha and LXR beta receptor binding were assayed in buffer consisting of 50 mM HEPES, pH 7.4, 10 mM NaCl, 5 mM MgCl2. For each 96-well reaction, 500 ng of LXRα-LBD or 700 ng of LXR beta-LBD proteins were bound to 80 μg or 40 μg SPA beads respectively, in a final volume of 50 μl by shaking. The resulting slurry was incubated for 1 h at RT and centrifuged for 2 min at 1300×g. The supernatant containing unbound protein was removed, and the semi-dry pellet containing the receptor-coated beads was re-suspended in 50 μl of buffer. Radioligand (eg. 100,000 dpm of (N-(2,2,2-trifluoroethyl)-N-[4-(2,2,2-trifluoro-1-hydroxy-1-trifluoromethylethyl)-phenyl]-benzenesulfonamide)) was added, and the reaction incubated at RT for 1 h in the presence of test compounds, and then scintillation proximity counting was performed. All binding assays were performed in 96-well plates and the amount of bound ligand was measured on a Packard TopCount using OptiPlates (Packard). Dose response curves were measured within a range of concentration from 10^−10 M to 10^−4 M.

human LXR beta = biological target: T2, human LXR beta (Homo sapiens, UniProt P55055); assay: Radioligand binding assay (SPA), LXR beta LBD; conditions: radioligand displacement, LXR beta-LBD on SPA beads; read-out: LXRbeta Binding IC50
T2 construct: human LXR beta (aa 155 to 460); unspecified tag ('tagged versions'); made in house; host or cells: E. coli BL21 (pLysS)
T2 sequence (P55055 155-460): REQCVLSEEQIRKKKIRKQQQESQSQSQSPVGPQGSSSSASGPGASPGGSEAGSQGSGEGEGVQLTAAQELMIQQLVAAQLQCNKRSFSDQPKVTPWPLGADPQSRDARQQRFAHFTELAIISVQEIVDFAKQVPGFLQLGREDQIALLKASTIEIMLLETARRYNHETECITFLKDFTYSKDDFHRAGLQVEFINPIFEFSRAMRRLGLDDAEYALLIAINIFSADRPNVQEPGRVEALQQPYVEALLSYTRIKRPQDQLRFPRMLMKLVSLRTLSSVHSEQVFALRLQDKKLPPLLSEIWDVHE
Method: as §1, §2, §3, §4, §5

IC50 (human LXR alpha) [nM]	IC50 (human LXR beta) [nM]	Compound
70	25	CS(=O)(=O)c1cccc(-c2cccc([C@@H]3CN(S(=O)(=O)c4ccccc4)CC[C@H]3c3ccccc3)c2)c1 (racemic) [Example 36, trans-1-Benzenesulfonyl-3-(3′-methanesulfonyl-biphenyl-3-yl)-4-phenyl-piperidine]
3030	2750	CS(=O)(=O)c1cccc(-c2cccc([C@@H]3CN(S(=O)(=O)c4ccccc4)CC[C@@H]3c3ccccc3)c2)c1 (relative stereo) [Example 39, cis-1-Benzenesulfonyl-3-(3′-methanesulfonyl-biphenyl-3-yl)-4-phenyl-piperidine]
27400	36800	Cc1ccc(C)c(-c2cccc([C@@H]3CN(C(=O)OC(C)(C)C)CC[C@@H]3c3ccccc3)c2)c1 (relative stereo) [Example 41, cis-3-(2′,5′-Dimethyl-biphenyl-3-yl)-4-phenyl-piperidine-1-carboxylic acid tert-butyl ester]
3980	755	CC(C)(C)OC(=O)N1CC[C@@H](c2ccccc2)[C@H](c2cccc(-c3cncc(S(C)(=O)=O)c3)c2)C1 (relative stereo) [Example 43, trans-3-[3-(5-Methanesulfonyl-pyridin-3-yl)-phenyl]-4-phenyl-piperidine-1-carboxylic acid tert-butyl ester]
53700	5510	Cc1cccc(-c2cccc([C@@H]3CN(C(=O)OC(C)(C)C)CC[C@H]3c3ccccc3)c2)c1 (relative stereo) [Example 44, trans-3-(3′-Methyl-biphenyl-3-yl)-4-phenyl-piperidine-1-carboxylic acid tert-butyl ester]
11600	2880	O=C(O)c1ccc(-c2ccc(C3CN(S(=O)(=O)c4ccccc4)C(=O)N3c3ccccc3)cc2)cc1 (stereo not drawn) [Example 1, 4′-(1-Benzenesulfonyl-2-oxo-3-phenyl-imidazolidin-4-yl)-biphenyl-4-carboxylic acid]

The next lines start with the molecule.

Compound	IC50 (human LXR alpha) [nM]	IC50 (human LXR beta) [nM]
NCc1cccc(-c2cccc([C@@H]3CN(S(=O)(=O)c4ccccc4)CC[C@H]3c3ccccc3)c2)c1 (relative stereo) [Example 37]	2540	2090
CC(C)(C)OC(=O)N1CC[C@@H](c2ccccc2)[C@H](c2cccc(-c3cccc(S(C)(=O)=O)c3)c2)C1 (relative stereo) [Example 38, trans-3-(3′-Methanesulfonyl-biphenyl-3-yl)-4-phenyl-piperidine-1-carboxylic acid tert-butyl ester]	160	25
CC(C)(C)OC(=O)N1CC[C@H](c2ccccc2)[C@H](c2cccc(-c3cccc(S(C)(=O)=O)c3)c2)C1 (relative stereo) [Example 42, cis-3-(3′-Methanesulfonyl-biphenyl-3-yl)-4-phenyl-piperidine-1-carboxylic acid tert-butyl ester]	2830	610
CC(C)(C)OC(=O)N1C[C@H](c2cccc(-c3cccc(S(C)(=O)=O)c3)c2)[C@H](c2ccccc2)CC1=O (relative stereo) [Example 45, Cis-5-(3′-Methanesulfonyl-biphenyl-3-yl)-2-oxo-4-phenyl-piperidine-1-carboxylic acid tert-butyl ester]	240	21
CC(C)(C)OC(=O)N1C[C@H](c2cccc(-c3cncc(S(C)(=O)=O)c3)c2)[C@H](c2ccccc2)CC1=O (relative stereo) [Example 46, cis-5-[3-(5-Methanesulfonyl-pyridin-3-yl)-phenyl]-2-oxo-4-phenyl-piperidine-1-carboxylic acid tert-butyl ester]	8220	385
Cc1ccc(C)c(-c2cccc([C@H]3CN(C(=O)OC(C)(C)C)C(=O)C[C@H]3c3ccccc3)c2)c1 (relative stereo) [Example 47, Cis-5-(2′,5′-Dimethyl-biphenyl-3-yl)-2-oxo-4-phenyl-piperidine-1-carboxylic acid tert-butyl ester]	185	220
